Results reported in US4175081A, “5-Substituted thiadiazole ureas” (priority 1977, dated 1979).

How the values were obtained:
Crabgrass (CG) [1] = experiment: Pre-emergence herbicide test; assay type: in vivo, Digitaria sanquinalis; details: Digitaria sanguinalis, pre-emergence, 336 h, two weeks after treatment
Outline: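 Crabgrass (Digitaria sanquinalis) was surface seeded in 3' plastic pots of potting soil, covered with screened soil, and watered by sub-irrigation in greenhouse trays. Pots were seeded one day before spraying in a hood with a moving belt and fixed nozzle. Plants stayed in the greenhouse on sub-irrigation, and pre-emergence control was rated visually two weeks after treatment.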

Johnson grass (JG) = experiment: Pre-emergence herbicide test; assay type: in vivo, Sorgum helepense; details: Sorghum halepense, 336 h, two weeks after treatment
Outline: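 Visual injury or control rating two weeks post-treatment, after pre-emergence spray of 8 or 4 lbs active per acre (38 gal/acre) onto pots sown the previous day. Greenhouse watering by sub-irrigation only.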

Barnyard grass (BG) = experiment: Pre-emergence herbicide test; assay type: in vivo; details: Echinochloa crus-galli, 336 h, two weeks after treatment
Outline: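 Greenhouse pre-emergence spray test: pots seeded one day before treatment received compound at rates of 8 or 4 lb/acre (38 gal/acre). Visual injury/control scores for Echinochloa crus-galli taken at two weeks, with watering by sub-irrigation only.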

Amaranth pigweed (PW) = experiment: Pre-emergence herbicide test; assay type: in vivo, Amaranthus retroflexus; details: 336 h, two weeks after treatment
Procedure: All crop and weed species were planted individually in 3' plastic pots containing potting soil. Four seeds each of corn, cotton, and snapbeans were seeded to a depth equal to the diameter of the seed. All other species were surface seeded and sprinkled with screened soil in an amount sufficient to cover the seed. Immediately after planting, all pots were watered by sub-irrigation in greenhouse trays. Pots for the pre-emergence phase were seeded one day before treatment.
Compounds were tested at rates of application equivalent to 8 lbs. of actual compound per acre in a spray volume of 38 gallons per acre. Spray hood constants required to deliver the above volume are as follows:
Formulations for spray applications were prepared in 50 ml volumes with the following three components:
Formulations for the 4 lbs/acre rate were prepared by adjusting the amount of active ingredient accordingly.
Spray applications were made in a hood containing a removable belt and fixed spray nozzle. For passage through the spray hood, one pot of each specie (pre-emergence phase) was placed on the rear half of the flat. Treatments were removed to the greenhouse after spraying. Watering during the observation period was done only by sub-irrigation.
Two weeks after treatment, pre- and post-emergence injury or control was visually rated, and the results were as shown in the following tables. Pre-emergence data are provided in TABLE III and post-emergence data are provided in TABLE IV, for compounds having the formula illustrated in TABLE I. Correspondingly, pre-emergence and post-emergence data, respectively, are set forth in TABLES V AND VI, for compounds having the formula illustrated in TABLE II.

Turnip (TP) [2] = experiment: Pre-emergence herbicide test; assay type: in vivo, Brassica sp.; details: Brassica rapa, pre-emergence, 336 h, two weeks after treatment
Outline: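 In this pre-emergence greenhouse test, turnip was seeded on the surface of potting soil in 3' plastic pots, lightly covered with screened soil, and watered from below. One day later the pots were sprayed in a belt-fed spray hood. Watering continued only by sub-irrigation, and percent control was visually scored two weeks after treatment.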

Cotton (CT) [3] = experiment: Pre-emergence herbicide test; assay type: in vivo, Gossypium hirsutum var. DPL smooth leaf; details: Gossypium hirsutum, 336 h, two weeks after treatment
Outline: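 Visual injury/control ratings were taken at two weeks post-spray. Pots seeded a day earlier received compound pre-emergence at 8 lbs/acre, or 4 lbs/acre, in a 38 gallon/acre spray volume, and were then held in the greenhouse, watered only from below.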

Corn (CN) = experiment: Pre-emergence herbicide test; assay type: in vivo; details: Zea mays, 336 h, two weeks after treatment
Outline: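 Visual injury/control ratings were made 2 weeks post-spray on corn pots seeded (4 seeds, seed-diameter depth) the day before treatment. Application was a belt-hood spray of 38 gal/acre delivering 8 lbs active per acre, with a 4 lbs/acre rate also formulated. Watering was by sub-irrigation throughout.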

Bean (BN) [4] = experiment: Pre-emergence herbicide test; assay type: in vivo, Phaseolus vulgaris var. Black Valentine; details: Phaseolus vulgaris, 336 h, two weeks after treatment
Outline: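 Visual injury/control ratings were taken two weeks post-spray on sub-irrigated Phaseolus vulgaris var. Black Valentine. Pots were sown a day before treatment. Pre-emergence spray delivered 8 lbs actual compound per acre (or 4 lbs/acre) at 38 gallons per acre.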

Crabgrass (CG) [5] = experiment: Post-emergence herbicide test; assay type: in vivo, Digitaria sanquinalis; details: Digitaria sanguinalis, post-emergence, 336 h, two weeks after treatment
Outline: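 Crabgrass (Digitaria sanquinalis) was surface seeded individually in 3' plastic pots of potting soil, covered with screened soil, and watered by sub-irrigation in greenhouse trays. Planting was staggered so seedlings reached the target stage together. Post-emergence sprays were applied in a hood with a removable belt and fixed nozzle, and control was visually rated two weeks after treatment.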

Turnip (TP) [6] = experiment: Post-emergence herbicide test; assay type: in vivo, Brassica sp.; details: Brassica rapa, post-emergence, 336 h, two weeks after treatment
Outline: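 A greenhouse post-emergence herbicide test on turnip. Seeds were sown on the surface of potting soil in 3' plastic pots, lightly covered with screened soil and watered from below. Planting was timed so seedlings had 1 or 2 true leaves above the cotyledons at spraying, done in a hood with a fixed nozzle. Control or injury was scored by eye after two weeks.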

Cotton (CT) [7] = experiment: Post-emergence herbicide test; assay type: in vivo, Gossypium hirsutum var. DPL smooth leaf; details: Gossypium hirsutum, post-emergence, 336 h, two weeks after treatment
Outline: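 This greenhouse post-emergence test measured how well spray treatments controlled cotton. Seedlings of Gossypium hirsutum var. DPL smooth leaf, with expanded cotyledons and a first true leaf 1' in length, were sprayed with 50 ml formulations in a belt-fed spray hood. They were then returned to the greenhouse and watered only by sub-irrigation. Injury was scored visually as % control after two weeks.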

Bean (BN) [8] = experiment: Post-emergence herbicide test; assay type: in vivo, Phaseolus vulgaris var. Black Valentine; details: Phaseolus vulgaris, post-emergence, 336 h, two weeks after treatment
Outline: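 Bean seedlings (Phaseolus vulgaris var. Black Valentine) were grown in potting soil in 3' pots until the primary leaves expanded. They were then sprayed under a hood with a removable belt and fixed nozzle, using 50 ml formulations. Afterward they were returned to the greenhouse and watered only by sub-irrigation. Percent control was judged visually two weeks after treatment.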

Compound: CCSc1nnc(N(C)C(=O)NC)s1 [Example 89]
- pest or weed control at 560.425 g/ha (Crabgrass (CG) [1]; 0.5 lb/acre): 50%
- pest or weed control at 1120.85 g/ha (Crabgrass (CG) [1]; 1 lb/acre): 90%
- pest or weed control at 2241.7 g/ha (Crabgrass (CG) [1]; 2 lb/acre): 90%
- pest or weed control at 4483.4 g/ha (Crabgrass (CG) [1]; 4 lb/acre): 100%
- pest or weed control at 560.425 g/ha (Johnson grass (JG); 0.5 lb/acre): 40%
- pest or weed control at 1120.85 g/ha (Johnson grass (JG); 1 lb/acre): 50%
- pest or weed control at 2241.7 g/ha (Johnson grass (JG); 2 lb/acre): 80%
- pest or weed control at 4483.4 g/ha (Johnson grass (JG); 4 lb/acre): 70%
- pest or weed control at 560.425 g/ha (Barnyard grass (BG); 0.5 lb/acre): 30%
- pest or weed control at 1120.85 g/ha (Barnyard grass (BG); 1 lb/acre): 80%
- pest or weed control at 2241.7 g/ha (Barnyard grass (BG); 2 lb/acre): 80%
- pest or weed control at 4483.4 g/ha (Barnyard grass (BG); 4 lb/acre): 100%
- pest or weed control at 560.425 g/ha (Amaranth pigweed (PW); 0.5 lb/acre): 70%
- pest or weed control at 1120.85 g/ha (Amaranth pigweed (PW); 1 lb/acre): 100%
- pest or weed control at 2241.7 g/ha (Amaranth pigweed (PW); 2 lb/acre): 100%
- pest or weed control at 4483.4 g/ha (Amaranth pigweed (PW); 4 lb/acre): 100%
- pest or weed control at 560.425 g/ha (Turnip (TP) [2]; 0.5 lb/acre): 30%
- pest or weed control at 1120.85 g/ha (Turnip (TP) [2]; 1 lb/acre): 70%
- pest or weed control at 2241.7 g/ha (Turnip (TP) [2]; 2 lb/acre): 80%
- pest or weed control at 4483.4 g/ha (Turnip (TP) [2]; 4 lb/acre): 90%
- pest or weed control at 560.425 g/ha (Cotton (CT) [3]; 0.5 lb/acre): 10%
- pest or weed control at 1120.85 g/ha (Cotton (CT) [3]; 1 lb/acre): 10%
- pest or weed control at 2241.7 g/ha (Cotton (CT) [3]; 2 lb/acre): 10%
- pest or weed control at 4483.4 g/ha (Cotton (CT) [3]; 4 lb/acre): 50%
- pest or weed control at 560.425 g/ha (Corn (CN); 0.5 lb/acre): 10%
- pest or weed control at 1120.85 g/ha (Corn (CN); 1 lb/acre): 50%
- pest or weed control at 2241.7 g/ha (Corn (CN); 2 lb/acre): 40%
- pest or weed control at 4483.4 g/ha (Corn (CN); 4 lb/acre): 50%
- pest or weed control at 560.425 g/ha (Bean (BN) [4]; 0.5 lb/acre): 10%
- pest or weed control at 1120.85 g/ha (Bean (BN) [4]; 1 lb/acre): 10%
- pest or weed control at 2241.7 g/ha (Bean (BN) [4]; 2 lb/acre): 10%
- pest or weed control at 4483.4 g/ha (Bean (BN) [4]; 4 lb/acre): 10%
- pest or weed control at 560.425 g/ha (Crabgrass (CG) [5]; 0.5 lb/acre): 40%
- pest or weed control at 1120.85 g/ha (Crabgrass (CG) [5]; 1 lb/acre): 50%
- pest or weed control (Crabgrass (CG) [5]; 2 lb/acre): 90%
- pest or weed control at 4483.4 g/ha (Crabgrass (CG) [5]; 4 lb/acre): 90%
- pest or weed control at 560.425 g/ha (Turnip (TP) [6]; 0.5 lb/acre): 100%
- pest or weed control at 1120.85 g/ha (Turnip (TP) [6]; 1 lb/acre): 100%
- pest or weed control at 2241.7 g/ha (Turnip (TP) [6]; 2 lb/acre): 100%
- pest or weed control at 4483.4 g/ha (Turnip (TP) [6]; 4 lb/acre): 100%
- pest or weed control at 560.425 g/ha (Cotton (CT) [7]; 0.5 lb/acre): 90%
- pest or weed control at 1120.85 g/ha (Cotton (CT) [7]; 1 lb/acre): 100%
- pest or weed control at 2241.7 g/ha (Cotton (CT) [7]; 2 lb/acre): 100%
- pest or weed control at 4483.4 g/ha (Cotton (CT) [7]; 4 lb/acre): 100%
- pest or weed control at 560.425 g/ha (Bean (BN) [8]; 0.5 lb/acre): 90%
- pest or weed control at 1120.85 g/ha (Bean (BN) [8]; 1 lb/acre): 100%
- pest or weed control at 2241.7 g/ha (Bean (BN) [8]; 2 lb/acre): 100%
- pest or weed control at 4483.4 g/ha (Bean (BN) [8]; 4 lb/acre): 100%
